Test results as given in US20130245110A1, “USE FOR CANNABINOIDS” (priority 2008, published 2013).

How the values were obtained:
C57B1/Ks db/db mouse [1] = assay: Plasma insulin concentration; format: in vivo; conditions: db/db mice
Experimental: (§1) Inflammation is also a feature of type II diabetic animals and man. […] However, as a result of the C57B1/Ks genetic background rather than the C57B1/6, the mice show loss of pancreatic function from around 6/7 weeks of age and by 10 weeks show frank diabetes.
The mice were given chow diet (Bantin and Kingman, no 1 diet) and water ad lib. The mice were kept under controlled lighting conditions (lights on 08.00 h, 12 h light/12 h dark) and at a room temperature of 21°±1° C.
(§2) • Daily: Food and water intake • Twice weekly: Body weight and glucose • Day 1: Weigh mice, dose compounds, provide measured amount of food, provide measured amount of water • Days 2, 5 and 8: Fed blood glucose concentration • Day 9: Oral glucose tolerance • Days 12 and 16: Fed blood glucose concentration • Day 19: 24 hr glycaemic assay • Days 22, 26 and 29: Fed blood glucose concentration • Day 33: 24 hr glycaemic assay • Day 38: Fed blood glucose concentration • Day 39: Body composition by Dexascan in anaesthetised mice • Day 41: Termination. Take blood samples for glucose, free fatty acids, triglycerides, cholesterol, insulin and HbA

NOD mice = conditions: 86% in non-treated controls; cited from earlier work
C57B1/Ks db/db mouse [2] = assay: Glycaemic control (blood glucose, oral glucose tolerance, 24 h glucose profile); format: in vivo; conditions: db/db mice
Source text: as §1, §2

[3] = system: dietary induced obese (DIO) mouse model; assay: 24 h energy expenditure by indirect calorimetry, chronic dosing study; format: in vivo; conditions: DIO mice
Source text: The C57B1/6 mouse fed on a high fat diet for around 12 weeks is a standard model used to evaluate agents likely to affect metabolic disease including obesity, type II diabetes and dyslipidaemia. Thus both potential anti-obesity effects and effects on diabetic and dyslipidaemia parameters will be measured.
Once the acute studies were complete the mice were grouped in two groups of five mice for the chronic dosing study. Dosing was daily by oral gavage at 09:00-10:00.

[4] = system: dietary induced obese (DIO) mouse model; assay: Percentage body fat by Dexascan; format: in vivo; conditions: DIO mice; day 28 Dexascan; pure THCV at 30-fold lower dose than rimonabant
Experimental: The following are a battery of tests used to elicit the effects of drugs on diseases including type I or II diabetes, obesity, dyslipidaemia, related metabolic disorders and cardiovascular disease. • a) Body weight: Bodyweights of all mice were measured twice weekly during the study. • b) Food intake: Food intake was measured by weight difference taking account of food wastage in the bottom of the cage. • c) Measurement of water consumption: Water intake was calculated daily for each animal, during the treatment period, by weight difference of the water bottle. • d) Oral Glucose Tolerance Test (OGTT): Glucose was dissolved in water (3 g/10 ml) and given to the mice orally at a rate of 3 g/kg. […] Samples were then analysed automatically using a SpectraMax-250 and SoftMax Pro software. • f) Plasma preparation: Blood was collected for the measurement of i) plasma insulin, ii) cholesterol, iii) free fatty acids or iv) triglyceride concentration. • i. Plasma insulin analysis: Plasma insulin was measured using 5 μl of plasma, compared with a mouse insulin standard using a 96-well micro-assay plate • ii. […] The samples were mixed and incubated for 5 minutes before reading at dual wavelengths of 500 and 660 nm. • iii. Plasma free fatty acids: 5 μl samples of plasma were measured into a 96-well assay plate, to which was added 0.2 ml of reagents NEFA C • iv. […]

Structure (SMILES)	Plasma insulin during the 24 h glucose profiles (C57B1/Ks db/db mouse [1])	Incidence of diabetes (NOD mice) [%]	Glycaemic control versus control (C57B1/Ks db/db mouse [2])	Potency on energy expenditure relative to rimonabant, on a dosage basis [3]	Effectiveness on energy expenditure compared with rimonabant ([3]; high dose THCV-BDS, pure THCV 0.3 mg kg−1)	Percentage body fat [4]
C=C(C)[C@@H]1CCC(C)=C[C@H]1c1c(O)cc(CCCCC)cc1O [CBD, cannabidiol]	no consistent effect was seen	30	did not show significant differences in glycaemic control	–	–	–
CCCc1cc(O)c2c(c1)OC(C)(C)[C@@H]1CCC(C)=C[C@@H]21 [THCV, tetrahydrocannabivarin]	–	–	–	at least 10 fold	more effective than rimonabant	at least as effective as rimonabant
